Legend:
[1] = target: Tb-labeled inactive PDGFRβ (Homo sapiens (Human), UniProt P09619); assay: biochemical; type: binding; settings: read-out: PDGFR Lantha IC50
[2] = target: His6-TEV-PDGFRβ (557-1016) (Homo sapiens (Human), UniProt P09619); assay: PDGFRβ HTRF Assay; type: biochemical; settings: 800 μM ATP, 0.5 μM TK-substrate biotin peptide, 30 min pre-incubation, 3 hours reaction; read-out: PDGFR HTRF IC50
VEGFR2, unphosphorylated = VEGFR2, unphosphorylated (Homo sapiens (Human), UniProt P35968); assay: VEGFR ADP GLO assay; type: biochemical; settings: 5 nM VEGFR2, 1.2 mM ATP, 1 mg/mL Srctide, 180 min
Sequence of VEGFR2, unphosphorylated (P35968 whole entry, looked up): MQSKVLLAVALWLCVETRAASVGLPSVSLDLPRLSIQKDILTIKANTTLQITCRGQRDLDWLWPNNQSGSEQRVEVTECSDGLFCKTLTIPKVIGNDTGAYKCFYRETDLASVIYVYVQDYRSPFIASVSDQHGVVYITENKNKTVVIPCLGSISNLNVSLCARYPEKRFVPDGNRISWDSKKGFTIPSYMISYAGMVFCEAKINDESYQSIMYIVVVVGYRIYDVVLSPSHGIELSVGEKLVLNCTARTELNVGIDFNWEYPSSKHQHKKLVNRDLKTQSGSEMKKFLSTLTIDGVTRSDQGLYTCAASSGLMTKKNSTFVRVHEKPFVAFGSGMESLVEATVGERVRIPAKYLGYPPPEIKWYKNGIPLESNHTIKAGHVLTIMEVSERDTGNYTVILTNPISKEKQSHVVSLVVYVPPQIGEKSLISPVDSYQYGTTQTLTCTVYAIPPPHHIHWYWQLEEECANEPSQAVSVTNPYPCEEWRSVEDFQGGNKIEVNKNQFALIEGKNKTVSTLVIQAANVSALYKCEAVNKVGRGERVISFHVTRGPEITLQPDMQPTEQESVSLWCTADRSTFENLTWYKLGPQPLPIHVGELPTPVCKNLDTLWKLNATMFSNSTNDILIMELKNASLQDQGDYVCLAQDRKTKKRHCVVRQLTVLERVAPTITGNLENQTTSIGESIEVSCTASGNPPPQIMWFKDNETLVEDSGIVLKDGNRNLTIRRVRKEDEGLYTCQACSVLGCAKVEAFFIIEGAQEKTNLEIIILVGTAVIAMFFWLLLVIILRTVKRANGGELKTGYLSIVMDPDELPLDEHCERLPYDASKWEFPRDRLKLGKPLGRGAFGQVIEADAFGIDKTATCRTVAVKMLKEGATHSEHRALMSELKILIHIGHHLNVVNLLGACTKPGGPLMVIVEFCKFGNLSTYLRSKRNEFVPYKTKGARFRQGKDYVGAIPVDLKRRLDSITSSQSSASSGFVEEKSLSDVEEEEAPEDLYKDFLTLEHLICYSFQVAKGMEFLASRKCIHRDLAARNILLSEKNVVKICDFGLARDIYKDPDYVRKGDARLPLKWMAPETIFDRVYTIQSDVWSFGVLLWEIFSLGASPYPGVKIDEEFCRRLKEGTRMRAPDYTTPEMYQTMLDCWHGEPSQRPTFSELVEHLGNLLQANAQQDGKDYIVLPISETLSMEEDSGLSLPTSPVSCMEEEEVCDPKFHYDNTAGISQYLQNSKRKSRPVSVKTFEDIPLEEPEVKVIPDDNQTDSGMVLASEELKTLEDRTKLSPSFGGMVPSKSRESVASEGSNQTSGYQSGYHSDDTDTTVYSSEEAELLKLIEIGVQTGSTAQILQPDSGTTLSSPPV
How it was run: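 Unphosphorylated kinase (10 nM 2× solution) pre-incubated 30 min at RT with compounds (11-point, 3-fold, top 10 µM), then reacted 180 min with srctide and ATP (2×: 2 mg/mL, 2.4 mM) in HEPES pH 7.5 buffer. ADP read by luminescence. IC50 from 4-parameter fit, normalized to DMSO and 1 µM TAK-593.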

PDGFRβ = PDGFRβ (Rattus norvegicus (Rat), UniProt Q05030); assay: PDGFRβ Cellular Assay (PDGFRb P-Y751 HTRF, PDGF-BB stimulated A10 cells); type: cell-based; settings: A10 cells, 3 hours compound, 15 ng/mL PDGFbb for 10 minutes; read-out: PDGFR Cellular IC50
Sequence of PDGFRβ (Q05030 whole entry, looked up): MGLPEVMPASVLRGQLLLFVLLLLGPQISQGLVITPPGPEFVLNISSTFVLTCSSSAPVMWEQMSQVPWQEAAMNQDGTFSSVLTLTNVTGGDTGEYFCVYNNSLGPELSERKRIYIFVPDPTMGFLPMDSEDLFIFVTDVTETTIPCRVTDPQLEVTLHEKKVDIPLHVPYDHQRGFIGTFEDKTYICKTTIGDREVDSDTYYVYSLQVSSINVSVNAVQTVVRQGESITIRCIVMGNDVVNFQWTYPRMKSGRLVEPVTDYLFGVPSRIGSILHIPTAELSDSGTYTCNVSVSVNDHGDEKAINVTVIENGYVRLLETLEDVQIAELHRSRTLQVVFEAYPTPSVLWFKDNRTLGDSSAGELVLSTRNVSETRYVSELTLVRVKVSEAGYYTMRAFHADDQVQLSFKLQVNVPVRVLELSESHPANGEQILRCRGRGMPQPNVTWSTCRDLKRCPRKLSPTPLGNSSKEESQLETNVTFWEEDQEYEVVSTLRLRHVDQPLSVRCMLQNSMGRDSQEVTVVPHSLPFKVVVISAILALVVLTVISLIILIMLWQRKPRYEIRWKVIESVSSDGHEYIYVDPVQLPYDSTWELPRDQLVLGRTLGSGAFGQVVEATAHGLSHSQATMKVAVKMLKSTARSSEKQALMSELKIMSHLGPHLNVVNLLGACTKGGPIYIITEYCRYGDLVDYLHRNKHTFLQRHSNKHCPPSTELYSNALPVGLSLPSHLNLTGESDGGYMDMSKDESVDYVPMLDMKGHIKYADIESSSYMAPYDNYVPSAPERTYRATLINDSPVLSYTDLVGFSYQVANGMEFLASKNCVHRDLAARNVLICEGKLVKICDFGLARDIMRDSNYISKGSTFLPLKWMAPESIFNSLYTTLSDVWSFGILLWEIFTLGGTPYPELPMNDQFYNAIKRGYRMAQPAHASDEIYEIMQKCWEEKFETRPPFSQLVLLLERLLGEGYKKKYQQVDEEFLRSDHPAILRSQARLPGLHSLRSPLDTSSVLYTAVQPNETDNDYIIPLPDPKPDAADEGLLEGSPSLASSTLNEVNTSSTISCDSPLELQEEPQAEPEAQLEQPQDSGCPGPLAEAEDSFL
How it was run: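 Rat A10 cells plated overnight were treated with compound for 3 h, stimulated with rat PDGF-BB (working stock 100 ng/mL in 10% FBS medium) for 10 min, then lysed.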

Sequence of Tb-labeled inactive PDGFRβ (P09619 whole entry, looked up): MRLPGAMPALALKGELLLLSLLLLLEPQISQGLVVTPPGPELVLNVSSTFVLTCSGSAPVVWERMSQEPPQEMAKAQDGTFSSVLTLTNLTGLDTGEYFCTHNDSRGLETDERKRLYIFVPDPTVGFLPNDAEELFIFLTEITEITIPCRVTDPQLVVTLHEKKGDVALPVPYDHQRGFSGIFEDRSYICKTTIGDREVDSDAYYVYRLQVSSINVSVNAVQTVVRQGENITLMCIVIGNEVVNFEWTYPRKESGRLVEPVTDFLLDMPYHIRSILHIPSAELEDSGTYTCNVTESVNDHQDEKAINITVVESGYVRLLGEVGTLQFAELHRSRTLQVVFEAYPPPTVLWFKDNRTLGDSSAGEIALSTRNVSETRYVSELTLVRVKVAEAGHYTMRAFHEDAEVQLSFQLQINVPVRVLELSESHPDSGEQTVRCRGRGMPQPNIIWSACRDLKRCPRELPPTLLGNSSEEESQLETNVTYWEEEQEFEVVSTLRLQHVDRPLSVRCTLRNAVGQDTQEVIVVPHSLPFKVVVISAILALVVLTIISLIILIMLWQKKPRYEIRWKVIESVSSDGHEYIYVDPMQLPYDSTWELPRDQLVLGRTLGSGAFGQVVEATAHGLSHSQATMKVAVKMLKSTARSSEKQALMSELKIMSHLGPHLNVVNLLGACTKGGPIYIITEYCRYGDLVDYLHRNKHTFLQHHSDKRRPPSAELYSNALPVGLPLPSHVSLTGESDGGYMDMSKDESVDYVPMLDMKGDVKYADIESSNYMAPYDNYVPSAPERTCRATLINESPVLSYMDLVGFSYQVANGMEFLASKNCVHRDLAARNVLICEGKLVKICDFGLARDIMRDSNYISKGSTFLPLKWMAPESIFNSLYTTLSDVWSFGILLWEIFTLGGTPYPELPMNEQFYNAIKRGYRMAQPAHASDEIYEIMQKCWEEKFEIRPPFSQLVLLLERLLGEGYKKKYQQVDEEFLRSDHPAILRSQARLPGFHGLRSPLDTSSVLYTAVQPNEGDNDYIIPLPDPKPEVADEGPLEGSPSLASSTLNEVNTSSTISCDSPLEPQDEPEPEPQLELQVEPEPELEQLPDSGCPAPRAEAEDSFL
Sequence of His6-TEV-PDGFRβ (557-1016) (P09619 whole entry, looked up): as above

| Compound | IC50 [1] | IC50 [2] | IC50 (VEGFR2, unphosphorylated) | IC50 (PDGFRβ) |
| --- | --- | --- | --- | --- |
| Cc1ncc(NC(=O)C2(C(=O)N3CCN(C)CC3)CC2)cc1Nc1nn(C)c2nc(Nc3cnn(C)c3)ncc12 [Example 116, N-(6-methyl-5-((1-methyl-6-((1-methyl-1H-pyrazol-4-yl)amino)-1H-pyrazolo[3,4-d]pyrimidin-3-yl)amino)pyridin-3-yl)-1-(4-methylpiperazine-1-carbonyl)cyclopropanecarboxamide] | 59.4 nM | 2.63 nM | > 7.5 µM | 721 nM |
| Cc1ncc(NC(=O)C2(C(=O)N3CCNCC3)CC2)cc1Nc1nn(C)c2nc(Nc3cnn(C)c3)ncc12 [Example 117, N-(6-methyl-5-((1-methyl-6-((1-methyl-1H-pyrazol-4-yl)amino)-1H-pyrazolo[3,4-d]pyrimidin-3-yl)amino)pyridin-3-yl)-1-(piperazine-1-carbonyl) cyclopropanecarboxamide] | 147 nM | 4.28 nM | > 7.5 µM | > 2000 nM |
| Cc1ccc(C(=O)NCCN2CCC(F)(F)CC2)cc1Nc1nn(C)c2nc(Nc3cnn(C)c3)ncc12 [Example 118, N-(2-(4,4-difluoropiperidin-1-yl)ethyl)-4-methyl-3-((1-methyl-6-((1-methyl-1H-pyrazol-4-yl)amino)-1H-pyrazolo[3,4-d]pyrimidin-3-yl)amino)benzamide] | 1.8 nM | 0.29 nM | 0.076 µM | 5.4 nM |
| C[C@H]1CCCN1CCNC(=O)c1ccc(F)c(Nc2nn(C)c3nc(Nc4cnn(C)c4)ncc23)c1 [Example 119, (S)-4-fluoro-3-((1-methyl-6-((1-methyl-1H-pyrazol-4-yl)amino)-1H-pyrazolo[3,4-d]pyrimidin-3-yl)amino)-N-(2-(2-methylpyrrolidin-1-yl)ethyl)benzamide] | 1.4 nM | 0.13 nM | 6.6 µM | 5.8 nM |
| Cn1cc(Nc2ncc3c(Nc4cc(C(=O)NCCN5CC(C)(C)C5)ccc4F)nn(C)c3n2)cn1 [Example 120, N-(2-(3,3-dimethylazetidin-1-yl)ethyl)-4-fluoro-3-((1-methyl-6-((1-methyl-1H-pyrazol-4-yl)amino)-1H-pyrazolo[3,4-d]pyrimidin-3-yl)amino)benzamide] | 3.3 nM | 0.32 nM | > 7.5 µM | 9.9 nM |
| Cn1cc(Nc2ncc3c(Nc4cc(C(=O)NCCN5CCCC5(C)C)ccc4F)nn(C)c3n2)cn1 [Example 121, N-(2-(2,2-dimethylpyrrolidin-1-yl)ethyl)-4-fluoro-3-((1-methyl-6-((1-methyl-1H-pyrazol-4-yl)amino)-1H-pyrazolo[3,4-d]pyrimidin-3-yl)amino)benzamide] | 1.3 nM | 0.2 nM | > 7.5 µM | 3.6 nM |
| Cn1cc(Nc2ncc3c(Nc4cc(C(=O)NCCN5CCC6(CC6)C5)ccc4F)nn(C)c3n2)cn1 [Example 122, N-(2-(5-azaspiro[2.4]heptan-5-yl)ethyl)-4-fluoro-3-((1-methyl-6-((1-methyl-1H-pyrazol-4-yl)amino)-1H-pyrazolo[3,4-d]pyrimidin-3-yl)amino)benzamide] | 1.2 nM | 0.15 nM | > 7.5 µM | 4.6 nM |
| COCCn1cc(Nc2ncc3c(Nc4cc(NC(=O)CN5CCC6(CC6)C5)cnc4C)nn(C)c3n2)cn1 [Example 124, N-(5-((6-((1-(2-methoxyethyl)-1H-pyrazol-4-yl)amino)-1-methyl-1H-pyrazolo[3,4-d]pyrimidin-3-yl)amino)-6-methylpyridin-3-yl)-2-(5-azaspiro[2.4]heptan-5-yl)acetamide] | 1.6 nM | 0.35 nM | 4.93 µM | 4.3 nM |
| COCCn1cc(Nc2ncc3c(Nc4cc(NC(=O)CN5CCCC5(C)C)cnc4C)nn(C)c3n2)cn1 [Example 125, 2-(2,2-dimethylpyrrolidin-1-yl)-N-(5-((6-((1-(2-methoxyethyl)-1H-pyrazol-4-yl)amino)-1-methyl-1H-pyrazolo[3,4-d]pyrimidin-3-yl)amino)-6-methylpyridin-3-yl)acetamide] | 1.7 nM | 0.34 nM | > 7.5 µM | 2.7 nM |
| COCCn1cc(Nc2ncc3c(Nc4cc(NC(=O)CN5CC(C)(C)C5)cnc4C)nn(C)c3n2)cn1 [Example 126, 2-(3,3-dimethylazetidin-1-yl)-N-(5-((6-((1-(2-methoxyethyl)-1H-pyrazol-4-yl)amino)-1-methyl-1H-pyrazolo[3,4-d]pyrimidin-3-yl)amino)-6-methylpyridin-3-yl)acetamide] | 2.1 nM | 0.33 nM | 6.88 µM | 6 nM |
| COCCn1cc(Nc2ncc3c(Nc4cc(NC(=O)CN5CC6CCC5CC6)cnc4C)nn(C)c3n2)cn1 [Example 127, 2-(2-azabicyclo[2.2.2]octan-2-yl)-N-(5-((6-((1-(2-methoxyethyl)-1H-pyrazol-4-yl)amino)-1-methyl-1H-pyrazolo[3,4-d]pyrimidin-3-yl)amino)-6-methylpyridin-3-yl)acetamide] | 1.4 nM | 0.27 nM | 6.49 µM | 2.6 nM |
| COCCn1cc(Nc2ncc3c(Nc4cc(NC(=O)CN5CCC[C@@H]5C)cnc4C)nn(C)c3n2)cn1 [Example 128, (S)—N-(5-((6-((1-(2-methoxyethyl)-1H-pyrazol-4-yl)amino)-1-methyl-1H-pyrazolo[3,4-d]pyrimidin-3-yl)amino)-6-methylpyridin-3-yl)-2-(2-methylpyrrolidin-1-yl)acetamide] | 3.6 nM | 0.47 nM | > 7.5 µM | 4.5 nM |
| COCCn1cc(Nc2ncc3c(Nc4cc(NC(=O)CN5CCC(C)(C)C5)cnc4C)nn(C)c3n2)cn1 [Example 129, 2-(3,3-dimethylpyrrolidin-1-yl)-N-(5-((6-((1-(2-methoxyethyl)-1H-pyrazol-4-yl)amino)-1-methyl-1H-pyrazolo[3,4-d]pyrimidin-3-yl)amino)-6-methylpyridin-3-yl)acetamide] | 1.3 nM | 0.27 nM | 1.42 µM | 2.4 nM |
| COCCn1cc(Nc2ncc3c(Nc4cc(NC(=O)CN5CCC56CCC6)cnc4C)nn(C)c3n2)cn1 [Example 130, N-(5-((6-((1-(2-methoxyethyl)-1H-pyrazol-4-yl)amino)-1-methyl-1H-pyrazolo[3,4-d]pyrimidin-3-yl)amino)-6-methylpyridin-3-yl)-2-(1-azaspiro[3.3]heptan-1-yl)acetamide] | 1.5 nM | 0.37 nM | > 7.5 µM | 4.7 nM |
| COCCn1cc(Nc2ncc3c(Nc4cc(NC(=O)CN5CCCC56CCC6)cnc4C)nn(C)c3n2)cn1 [Example 132, N-(5-((6-((1-(2-methoxyethyl)-1H-pyrazol-4-yl)amino)-1-methyl-1H-pyrazolo[3,4-d]pyrimidin-3-yl)amino)-6-methylpyridin-3-yl)-2-(5-azaspiro[3.4]octan-5-yl)acetamide] | 2 nM | 0.35 nM | > 7.5 µM | 3.2 nM |
| Cc1ncc(NC(=O)CN(CCF)C2CCCC2)cc1Nc1nn(C)c2nc(Nc3cnn(C)c3)ncc12 [Example 133, 2-(cyclopentyl(2-fluoroethyl)amino)-N-(6-methyl-5-((1-methyl-6-((1-methyl-1H-pyrazol-4-yl)amino)-1H-pyrazolo[3,4-d]pyrimidin-3-yl)amino)pyridin-3-yl)acetamide] | 2.4 nM | 0.44 nM | 5.55 µM | 4.1 nM |
| COC1CCN(CC(=O)Nc2cnc(C)c(Nc3nn(C)c4nc(Nc5cnn(C)c5)ncc34)c2)CC1 [Example 134, 2-(4-methoxypiperidin-1-yl)-N-(6-methyl-5-((1-methyl-6-((1-methyl-1H-pyrazol-4-yl)amino)-1H-pyrazolo[3,4-d]pyrimidin-3-yl)amino)pyridin-3-yl)acetamide] | 3.1 nM | 0.43 nM | > 7.5 µM | 7.4 nM |
| CO[C@@H]1CCN(CC(=O)Nc2cnc(C)c(Nc3nn(C)c4nc(Nc5cnn(C)c5)ncc34)c2)C1 [Example 135, (R)-2-(3-methoxypyrrolidin-1-yl)-N-(6-methyl-5-((1-methyl-6-((1-methyl-1H-pyrazol-4-yl)amino)-1H-pyrazolo[3,4-d]pyrimidin-3-yl)amino)pyridin-3-yl)acetamide] | 2.8 nM | 0.41 nM | > 7.5 µM | 9.5 nM |
| CO[C@H]1CCN(CC(=O)Nc2cnc(C)c(Nc3nn(C)c4nc(Nc5cnn(C)c5)ncc34)c2)C1 [Example 136, (S)-2-(3-methoxypyrrolidin-1-yl)-N-(6-methyl-5-((1-methyl-6-((1-methyl-1H-pyrazol-4-yl)amino)-1H-pyrazolo[3,4-d]pyrimidin-3-yl)amino)pyridin-3-yl)acetamide] | 3.7 nM | 0.52 nM | > 7.5 µM | 12.2 nM |
| COC1CN(CC(=O)Nc2cnc(C)c(Nc3nn(C)c4nc(Nc5cnn(C)c5)ncc34)c2)C1 [Example 137, 2-(3-methoxyazetidin-1-yl)-N-(6-methyl-5-((1-methyl-6-((1-methyl-1H-pyrazol-4-yl)amino)-1H-pyrazolo[3,4-d]pyrimidin-3-yl)amino)pyridin-3-yl)acetamide] | 4.5 nM | 0.49 nM | > 7.5 µM | 20.9 nM |

Reference: patent publication US20240360134A1, “PYRAZOLOPYRIMIDINES AND THEIR USES AS PDGFR INHIBITORS” (priority 2021, published 2024)
